Results reported in patent US20050004029A1, “Methods and compositions for treating vascular leak using hepatocyte growth factor” (priority 2001, published 2005).
Values joined by “and” are separate entries in the source; they are usually repeats but may differ in a detail not shown here. Identical values can stand only once.

Tests used:
Format in all cases: cell-based
[1] = system: Human pulmonary artery endothelial cells; assay: Transendothelial electrical resistance (TER) of human pulmonary artery endothelial cell monolayers
Procedure: Bovine pulmonary artery endothelial cells were purchased from the American Type Culture Collection (ATCC®, Rockville, Md.) and utilized at passage 19-24. Cells were maintained in Medium 199 (Life Technologies, Rockville, Md.) supplemented with 20% (v/v) colostrum-free bovine serum (CFBS) (Irvine Scientific, Santa Ana, Calif.), 15 μg/ml endothelial cell growth supplement (Upstate Biotechnology, Lake Placid, N.Y.), 1% antibiotic and antimycotic, and 0.1 mM non-essential amino acids (Life Technologies). Human pulmonary artery endothelial cells were purchased from Clonetics (Walkersville, Md.), cultured in EBM-2 complete medium (Clonetics) and utilized at passage 5-10. Human alveolar epithelial cells (A549) were purchased from ATCC® and cultured in the same medium as the bovine endothelial cells, except that the endothelial cell growth supplement was omitted. All cells were maintained at 37° C. in a humidified atmosphere of 5% CO2 and 95% air. Both endothelial cell types grew to contact-inhibited monolayers with the typical cobblestone morphology (Garcia, J. G. N. et al. (1995) J. Cell. Physiol. 163:510-522; Liu, F. et al. (2001) Am. J. Respir. Cell. Mol. Biol. 24:711-719).
Electrical resistance of EC monolayers was measured using electrical cell impedance sensor system (Applied Biophysics Inc., Troy, N.Y.) as described in Garcia, J. G. N. et al. (2000) J. Appl. Physiol. 89:2333-2343. Cells grown on gold microelectrodes (10^−3 cm^2) in polycarbonate wells act as insulating particles, and the resistance across the monolayers (transendothelial electrical resistance, or TER) is measured in real time. As cells adhere on the microelectrode and intercellular cell contacts are formed or in response to agents which increase junctional integrity, the TER increases (Garcia, J. G. N. et al. (2001) J. Clin. Invest. 108:689-711). In contrast, cell retraction, rounding, or loss of adhesion is reflected by decreases in TER (Garcia, J. G. N. et al. (2000) J. Appl. Physiol. 89:2333-2343). These measurements provide a highly sensitive biophysical assay that indicates the state of cell shape, focal adhesion, and endothelial barrier function (Giaever, I. and Keese, C. R. (1993) Nature 366:591-592; Tiruppathi, C. et al. (1992) Proc. Natl. Acad. Sci. USA 89:7919-7923). All electrical resistance data are presented as normalized values. Briefly, current was applied across the electrodes by a 4000 Hz AC voltage source with an amplitude of 1 V in series with a 1 MΩ resistance to approximate a constant current source (−1 μA). The small gold electrode and the larger counter electrode (1 cm^2) were connected to a phase-sensitive lock-in amplifier (5301A; EG&G Instruments Corp, Princeton, N.J.) with a built in differential preamplifier (5316A; EG&G Instruments Corp.). The in-phase and out-of-phase voltages between the electrodes were monitored in real time with the lock-in amplifier and converted to scalar measurements of transendothelial impedance, of which resistance was the primary focus. Transendothelial electrical resistance was monitored for 30 min to establish a baseline resistance (Ro) which, for human lung endothelium, was typically between 8 to 12×10^3 Ω (wells with R0<7×10^3 Ω or R0 >15×10^3 Ω were rejected). For some experiments, total TER was vectorially resolved into components reflecting resistance to current flow beneath the cell layer (α) and resistance to current flow between adjacent cells (Rb) as described in Garcia et al. (2000) supra utilizing the method of Giaiver and Keese which models the endothelial monolayer mathematically (Giaever, I. and Keese, C. R. (1993) Nature 366:591-592). Thus, changes in α reflect alterations in the net state of cell-matrix adhesion, whereas changes in Rb reflect alterations in the integrity of cell-cell adhesion. TER values from each microelectrode were pooled at discrete time points and plotted versus time as the mean±standard error of the mean (Garcia et al. (2000) supra). […]

Rac GTPase = Rac GTPase activity, p21 Rac-binding domain assay; conditions: HGF 10 ng/mL or Sph-1-P 1 μM for 1 or 5 min
Procedure: Endothelial cells grown in 100 mm dishes were incubated with agonists in serum-free M199. Cells were lysed in 500 μl Mg^2+ lysis buffer (Upstate Biotechnology, Lake Placid, N.Y.) and homogenized by pipetting. After a brief centrifugation to remove the cell debris, 300 μl of supernatant was incubated with the agarose-conjugated p21-binding domain (PBD) of human PAK-1 (10 μg, 30 min, Upstate Biotechnology). The agarose beads were washed with 1 ml of lysis buffer 5 times and re-suspended in 30 μl of 2×SDS buffer. After 10 min centrifugation at 14,000 g, 15 μl of supernatant from each sample was subjected to electrophoresis in 15% PAGE. […] For total Rac protein measurement, 5 μl of the original cell lysates were used for electrophoresis and western analysis. […] Pulmonary artery endothelial cells were incubated with HGF (10 ng/mL) or Sph-1-P (1 μM) for 1 or 5 min. Cells were lysed, supernatants collected, and activated GTP-bound Rac was precipitated by agarose-conjugated human PAK-1 p21-binding domain and subsequently immunoblotted by anti-Rac mAb. Total Rac protein was detected using cell lysates.

[2] = system: Human pulmonary artery endothelial cells; assay: Transendothelial electrical resistance (TER) of human pulmonary artery endothelial cell monolayers; conditions: HGF 100 ng/ml; baseline TER ~1600 Ω

## HGF: heparin-binding glycoprotein, multifunctional cytokine, ligand of c-Met; purchased from R&D Systems
[1]; HGF 100 ng/ml, at peak
  increase in TER (barrier enhancement): ~50% and > 50%
[1]; HGF 2-100 ng/ml, NK2 1-100 ng/ml
  direct effect on TER: increased TER in a dose-dependent manner
[1]; HGF 2 to 100 ng/ml
  time at which elevation in TER is clearly evident: 1 to 2 min
[1]; HGF >100 ng/ml
  further increase in TER above 100 ng/ml: No further significant increases in TER
[1]; after exposure to 100 ng/ml HGF
  time of peak TER increase: 15 to 20 min
[1]; pretreatment with HGF at 10 and 100 ng/mL
  TER response to re-stimulation with HGF (10 ng/ml) at 2 hr: significantly reduced the subsequent HGF responses
[1]; prior HGF stimulation at 1 ng/ml
  TER response to re-stimulation with HGF (10 ng/ml) at 2 hr: not altered
[1]; vectorial partitioning of TER after HGF treatment
  paracellular junction resistance (Rb): sharp increases
Rac GTPase
  Rac activity: rapidly and transiently increases Rac activity
[2]
  peak TER: ~2400 Ω
